Experimental data published in publication PMC11995230 (ACS Medicinal Chemistry Letters, 2025).
Where two headings read alike, the source gives them in different places.

How the values were obtained:
[1] = target: T1, S. pasteurii urease (Sporosarcina pasteurii, UniProt P41020); test: Purified S. pasteurii urease inhibition, cresol red assay, no preincubation; assay type: biochemical, Sporosarcina pasteurii CCM 2056; details: native purified urease, slow-binding, read-out: K i, S. pasteurii urease
T1 construct: The native urease, purified from S. pasteurii CCM 2056; made in house; host or cells: Sporosarcina pasteurii CCM 2056 (native, endogenous enzyme, not recombinant)
Description: compounds. Helicobacter pylori 2CLM belongs to the collection of the Department of Microbiology, Wrocław Medical University, Poland.
Purification of S. pasteurii urease
The native urease from the cells of S. pasteurii was induced and purified in a five-step chromatographic procedure, as previously described.S5 The protein concentration was […]
(§1) Enzymatic activity assays
(§2) Purified urease activity with the addition of the organoselenium compounds studied was measured using cresol red as an indicator of pH changes caused by ammonia produced during ureolysis.S6 The reaction was carried out in 3 mM phosphate buffer containing 30 mM urea, 0.01 % w/v cresol red, purified urease (at a concentration that led to a change in A570 of approximately 1.5 in 90 min) and studied compounds at various concentrations. The reaction was followed by using a TECAN Sunrise spectrometer , and the resulting progress curves were further analyzed to determine the activity and binding mechanism. The rea ction was followed in a system without preincubation of the enzyme with the benzisoselenazolone derivatives (addition of urease initiated the measurement).
The progress curves were fitted to the following equation to calculate the apparent reaction rate constants ( kapp):
P = v ∗ t + 0 s ∗ (1 − e−kapp∗t)
P – product concentration; t – time; v0 – initial state velocity; vs – steady state velocity.
The kapp values were then plotted against the inhibitor concentration [I], and the resulting linear function was used to calculate the dissociation […] of the EI complex (Ki): […]

[2] = tested on: H. pylori Tx30a (ATCC 51932) live cells; test: Whole cell ureolysis assay, cresol red; assay type: cell-based, Helicobacter pylori
Description: as §1
as §2, with “measurement). […]” for “measurement).”
Whole cell ureolysis assays
To measure the inhibitory activity of the compounds studied against whole cells of ureolytic pathogens, the cresol red reaction was carried out using H. pylori cells that were washed twice with 10 mM PBS and used as a biocatalyst.S6 The reaction mixture contained 10 mM PBS, 10 […]
mM urea, bacterial cells, and urease inhibitors. The results were then used to calculate the IC50 values of the organoselenium compounds against the whole cell ureolysis of H. pylori. […]

[3] = tested on: multidrug-resistant clinical isolate H. pylori 2CML; test: Antimicrobial activity alone and in combination with antibiotics, checkerboard method; assay type: cell-based, Helicobacter pylori; details: for MIC: Helicobacter pylori
Description: Combination of drugs against H. pylori 2CML
A multidrug-resistant clinical isolate H. pylori 2CML from the collection of the Department of Microbiology, Wrocław Medical University)S7 was used to assess the antimicrobial activity of compounds 1 and 4m, in combination with Clarithromycin, Metronidazole, and Levofloxacin (Sigma-Aldrich). The experiments were carried out on flat-bottom 12-well microtiter plates (Bionovo, Legnica, Poland), arranged in a 48-well panel to use the checkboard method.S8 […]
the selected antibiotic were placed in external wells along the x- and y-axes, respectively. The remaining wells contained varying concentrations of both compounds. Each well consisted of 1 mL of Brain Heart Infusion (Oxoid, Le Pont de Claix , France) broth with 5% foetal calf serum (Gibco, Paisley, Scotland, UK) , a bacterial suspension of 10^7 CFU/mL and the desired concentration of the antimicrobial (s) tested. Following the setup, the plates were incubated for 3 days at 37 °C under microaerophilic conditions (GENbox microaer kits, BioMerrieux, Marcy l’Etoile, France), shaking at 100 rpm.
The minimum inhibitory concentration (MIC) was determined as the lowest concentration in which no microbial growth was observed .
The interactions between antimicrobials were interpreted b y calculation of the fractional inhibitory concentration (FIC) index (FICI), defined as FICI = FICA + FICB (FICA = MIC of substance A in combination / MIC of substance A alone, FICB = MIC of substance B in combination / MIC of substance B alone). FICI ≤0.5 was considered as synergism; >0.5 but ≤1 as additivity, while […] as neutral.

[4] = tested on: Proteus mirabilis pathogenic cells; details: previously reported by the authors; reference number not given; read-out: IC50, ureolysis in Proteus mirabilis pathogenic cells; cited from earlier work
[5] = Helicobacter pylori, ATCC51932, read-out: IC50, H. pylori whole-cell ureolysis, live cells of H. pylori Tx30a
[6] = pair 4m + Clarithromycin, H. pylori 2CML
[7] = pair 4m + Levofloxacin, H. pylori 2CML
[8] = pair 4m + Metronidazole, H. pylori 2CML
[9] = 72 h, H. pylori 2CML, single agent, read-out: MIC Alone
[10] = H. pylori 2CML, single agent, read-out: MIC Alone
[11] = pair Ebselen + Clarithromycin, H. pylori 2CML
[12] = pair Ebselen + Levofloxacin, H. pylori 2CML
[13] = pair Ebselen + Metronidazole, H. pylori 2CML

T1 sequence (P41020 whole entry): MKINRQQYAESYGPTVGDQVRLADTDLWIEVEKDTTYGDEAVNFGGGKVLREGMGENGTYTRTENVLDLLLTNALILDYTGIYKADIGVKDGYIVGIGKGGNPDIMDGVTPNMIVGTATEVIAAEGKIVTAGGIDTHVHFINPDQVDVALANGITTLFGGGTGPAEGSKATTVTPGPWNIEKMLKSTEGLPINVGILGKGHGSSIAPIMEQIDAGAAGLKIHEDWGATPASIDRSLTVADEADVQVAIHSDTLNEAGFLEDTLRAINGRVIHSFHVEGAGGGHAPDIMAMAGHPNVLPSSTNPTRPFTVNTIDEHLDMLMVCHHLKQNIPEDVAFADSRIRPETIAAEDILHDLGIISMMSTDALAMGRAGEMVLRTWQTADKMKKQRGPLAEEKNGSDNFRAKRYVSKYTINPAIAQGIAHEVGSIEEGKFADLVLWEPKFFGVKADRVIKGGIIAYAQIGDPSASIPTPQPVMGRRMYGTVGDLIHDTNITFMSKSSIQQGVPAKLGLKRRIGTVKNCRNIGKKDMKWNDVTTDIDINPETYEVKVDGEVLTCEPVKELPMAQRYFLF
T1 sequence (P41022 whole entry, further chain): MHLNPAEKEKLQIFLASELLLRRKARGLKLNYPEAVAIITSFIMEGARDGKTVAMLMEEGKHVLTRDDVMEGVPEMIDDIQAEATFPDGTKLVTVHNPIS
T1 sequence (P41021 whole entry, further chain): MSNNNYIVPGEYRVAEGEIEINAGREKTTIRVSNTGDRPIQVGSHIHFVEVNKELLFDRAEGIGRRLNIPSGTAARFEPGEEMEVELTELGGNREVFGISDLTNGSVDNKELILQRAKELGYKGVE

Molecule: O=c1c2ccccc2[se]n1Cc1ccc(C(F)(F)F)c(F)c1 [4m]
- Ki [1]: 15.9 ± 1.9 nM
- IC50 [2, 5]: < 100 nM
- IC50 ([2]; read-out: IC50, H. pylori whole-cell ureolysis, live cells of H. pylori Tx30a): 93.5 ± 5.3 nM
- MIC ([3]; 72 h, read-out: MIC Alone): 1.17 µg/mL
- MIC ([3]; read-out: MIC Alone): 1.17 µg/mL
- MIC ([3]; read-out: MIC alone): 3.12 µM
- FIC ([3]; pair 4m + Clarithromycin): 0.0625
- FICI ([3]; pair 4m + Clarithromycin): 0.562
- Interpretation ([3]; pair 4m + Clarithromycin): Additive (>0.5 but ≤1 as additivity)
- MIC Combination [3, 6]: 0.0731 µg/mL
- MIC in combination [3, 6]: 0.2 µM
- FIC ([3]; pair 4m + Levofloxacin): 0.5
- FICI ([3]; pair 4m + Levofloxacin): 1
- Fold change of MIC (reduction) ([3]; pair 4m + Levofloxacin): ×2↓
- Interpretation ([3]; pair 4m + Levofloxacin): Additive (>0.5 but ≤1 as additivity)
- MIC Combination [3, 7]: 0.585 µg/mL
- FIC ([3]; pair 4m + Metronidazole): 0.125
- FICI ([3]; pair 4m + Metronidazole): 0.625
- Interpretation ([3]; pair 4m + Metronidazole): Additive (>0.5 but ≤1 as additivity)
- MIC Combination [3, 8]: 0.146 µg/mL

Molecule: O=c1c2ccccc2[se]n1Cc1ccc(Cl)c(C(F)(F)F)c1 [4n]
- Ki [1]: 18.6 ± 0.37 nM
- IC50 [2, 5]: 153 ± 5.4 nM

Molecule: O=c1c2ccccc2[se]n1Cc1ccc(F)c(C(F)(F)F)c1 [4o]
- Ki [1]: 2.99 ± 0.088 nM
- IC50 [2, 5]: 107 ± 1.9 nM

Molecule: O=c1c2ccccc2[se]n1Cc1cc(F)cc(F)c1 [4p]
- Ki [1]: 1.3 ± 0.027 nM
- IC50 [2, 5]: 122 ± 4.1 nM

Molecule: O=c1c2ccccc2[se]n1Cc1cc(C(F)(F)F)cc(C(F)(F)F)c1 [4q]
- Ki [1]: 3.32 ± 0.29 nM
- IC50 [2, 5]: 208 ± 4.5 nM

Molecule: O=c1c2ccccc2[se]n1Cc1ccc(F)c(F)c1F [4r]
- Ki [1]: 2.94 ± 0.26 nM
- IC50 [2, 5]: 179 ± 3.3 nM

Molecule: CC[C@H]1OC(=O)[C@H](C)[C@@H](O[C@H]2C[C@@](C)(OC)[C@@H](O)[C@H](C)O2)[C@H](C)[C@@H](O[C@@H]2O[C@H](C)C[C@H](N(C)C)[C@H]2O)[C@](C)(OC)C[C@@H](C)C(=O)[C@H](C)[C@@H](O)[C@]1(C)O [Clarithromycin]
- MIC [3, 9]: 16 µg/mL
- MIC [3, 10]: 16 µg/mL
- FIC ([3]; pair 4m + Clarithromycin): 0.5
- Fold change of MIC (reduction) ([3]; pair 4m + Clarithromycin): ×2↓
- MIC Combination [3, 6]: 8 µg/mL
- FIC ([3]; pair Ebselen + Clarithromycin): 0.5
- Fold change of MIC (reduction) ([3]; pair Ebselen + Clarithromycin): ×2↓
- MIC Combination [3, 11]: 8 µg/mL

Molecule: C[C@H]1COc2c(N3CCN(C)CC3)c(F)cc3c(=O)c(C(=O)O)cn1c23 [Levofloxacin]
- MIC [3, 9]: 16 µg/mL
- MIC [3, 10]: 16 µg/mL
- FIC ([3]; pair 4m + Levofloxacin): 0.5
- Fold change of MIC (reduction) ([3]; pair 4m + Levofloxacin): ×2↓
- MIC Combination [3, 7]: 8 µg/mL
- FIC ([3]; pair Ebselen + Levofloxacin): 0.5
- Fold change of MIC (reduction) ([3]; pair Ebselen + Levofloxacin): ×2↓
- MIC Combination [3, 12]: 8 µg/mL

Molecule: Cc1ncc([N+](=O)[O-])n1CCO [Metronidazole]
- MIC [3, 9]: 64 µg/mL
- MIC [3, 10]: 64 µg/mL
- FIC ([3]; pair 4m + Metronidazole): 0.5
- Fold change of MIC (reduction) ([3]; pair 4m + Metronidazole): ×2↓
- MIC Combination [3, 8]: 32 µg/mL
- FIC ([3]; pair Ebselen + Metronidazole): 0.5
- Fold change of MIC (reduction) ([3]; pair Ebselen + Metronidazole): ×2↓
- MIC Combination [3, 13]: 32 µg/mL

Molecule: O=c1c2ccccc2[se]n1-c1ccccc1 [compound 1, N-phenyl-1,2-benzisoselenazol-3(2H)-one]
- IC50 [2, 5]: 742 ± 41 nM
- MIC [3, 9]: 0.857 µg/mL
- MIC [3, 10]: 0.857 µg/mL
- MIC ([3]; H. pylori 2CML, single agent, read-out: MIC alone): 3.12 µM
- FIC ([3]; pair Ebselen + Clarithromycin): 0.5
- FICI ([3]; pair Ebselen + Clarithromycin): 1
- Interpretation ([3]; pair Ebselen + Clarithromycin): Additive (>0.5 but ≤1 as additivity)
- MIC Combination [3, 11]: 0.429 µg/mL
- FIC ([3]; pair Ebselen + Levofloxacin): 0.5
- FICI ([3]; pair Ebselen + Levofloxacin): 1
- Interpretation ([3]; pair Ebselen + Levofloxacin): Additive (>0.5 but ≤1 as additivity)
- MIC Combination [3, 12]: 0.429 µg/mL
- FIC ([3]; pair Ebselen + Metronidazole): 0.5
- FICI ([3]; pair Ebselen + Metronidazole): 1
- Interpretation ([3]; pair Ebselen + Metronidazole): Additive (>0.5 but ≤1 as additivity)
- MIC Combination [3, 13]: 0.429 µg/mL
- IC50 [4]: 29.2 ± 3.1 nM

Molecule: O=c1c2ccccc2[se]n1Cc1ccccc1 [compound 3]
- IC50 ([2]; Helicobacter pylori, ATCC51932, live cells of H. pylori Tx30a, read-out: IC50, H. pylori whole-cell ureolysis): 151 ± 5.7 nM

Molecule: N-(4-chloro-2-fluorophenyl)-1,2-benzisoselenazol-3(2H)-one [compound 2, reference compound]
- IC50 ([2]; live cells of H. pylori Tx30a, read-out: IC50, H. pylori whole-cell ureolysis): 337 nM
